pIC50: −log10 of the molar value.
Tested on: 377384-186-R-J1-PDC complex spheroid viability
Experiment: Anticancer human tumor 377384-186-R-J1-PDC patient-derived pancreatic carcinoma cell line growth inhibition [RAS]
Conditions: for pIC50: curve of first compound; for viability, T/C: stronger effect = lower value; active = viability on the fitted dose curve at most 10% of control; inactive = the rest
How it was run: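 Agents were tested in combination matrices in half-log decrements from a top concentration at or near clinical Cmax (10 microM if undetermined). Targets were multi-cell spheroids of tumour lines plus HUVEC and MSC stromal cells.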
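Note: spheroids exposed to compounds for seven days before readout.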

CC(C)n1nc(-c2ccc3oc(N)nc3c2)c2c(N)ncnc21 + CCn1c(-c2cccnc2C(C)OC)c2c3cc(ccc31)N1CCOC(CC(NC(=O)C(C(C)C)N(C)C(=O)C3(F)CCN(C(=O)C#CC(C)(C)N(C)C)CC3)C(=O)N3CCCC(N3)C(=O)OCC(C)(C)C2)C1
inactive: viability, T/C (second compound 0.000949 µM, first compound 0.000316 µM) 96.9% | viability, T/C (second compound 0.000949 µM, first compound 0.001 µM) 92% | viability, T/C (second compound 0.000949 µM, first compound 0.00316 µM) 80.3% | viability, T/C (second compound 0.000949 µM, first compound 0.01 µM) 62.1% | viability, T/C (second compound 0.000949 µM, first compound 0.0316 µM) 31.9% | viability, T/C (second compound 0.000949 µM, first compound 0.1 µM) 99% | viability, T/C (second compound 0.003 µM, first compound 0.000316 µM) 93.8% | viability, T/C (second compound 0.003 µM, first compound 0.001 µM) 84.8% | viability, T/C (second compound 0.003 µM, first compound 0.00316 µM) 86.8% | viability, T/C (second compound 0.003 µM, first compound 0.01 µM) 59.4% | viability, T/C (second compound 0.003 µM, first compound 0.0316 µM) 37.1% | viability, T/C (second compound 0.003 µM, first compound 0.1 µM) 98.4% | viability, T/C (second compound 0.00949 µM, first compound 0.000316 µM) 96.2% | viability, T/C (second compound 0.00949 µM, first compound 0.001 µM) 91.7% | viability, T/C (second compound 0.00949 µM, first compound 0.00316 µM) 66.6% | viability, T/C (second compound 0.00949 µM, first compound 0.01 µM) 55.8% | viability, T/C (second compound 0.00949 µM, first compound 0.0316 µM) 34.1% | viability, T/C (second compound 0.00949 µM, first compound 0.1 µM) 89.8% | viability, T/C (second compound 0.03 µM, first compound 0.000316 µM) 86.6% | viability, T/C (second compound 0.03 µM, first compound 0.001 µM) 78.1% | viability, T/C (second compound 0.03 µM, first compound 0.00316 µM) 72.3% | viability, T/C (second compound 0.03 µM, first compound 0.01 µM) 53.8% | viability, T/C (second compound 0.03 µM, first compound 0.0316 µM) 33.7% | viability, T/C (second compound 0.03 µM, first compound 0.1 µM) 101% | viability, T/C (second compound 0.0949 µM, first compound 0.000316 µM) 77% | viability, T/C (second compound 0.0949 µM, first compound 0.001 µM) 82.2% | viability, T/C (second compound 0.0949 µM, first compound 0.00316 µM) 71.4% | viability, T/C (second compound 0.0949 µM, first compound 0.01 µM) 55% | viability, T/C (second compound 0.0949 µM, first compound 0.0316 µM) 37.9% | viability, T/C (second compound 0.0949 µM, first compound 0.1 µM) 69.3% | viability, T/C (second compound 0.3 µM, first compound 0.000316 µM) 68.8% | viability, T/C (second compound 0.3 µM, first compound 0.001 µM) 74.7% | viability, T/C (second compound 0.3 µM, first compound 0.00316 µM) 66.8% | viability, T/C (second compound 0.3 µM, first compound 0.01 µM) 45.7% | viability, T/C (second compound 0.3 µM, first compound 0.0316 µM) 27.2% | viability, T/C (second compound 0.3 µM, first compound 0.1 µM) 56.1%
8.11: pIC50 (second compound 0.3 µM)
< 7.00: pIC50 (second compound 0.000949 µM) | pIC50 (second compound 0.003 µM) | pIC50 (second compound 0.00949 µM) | pIC50 (second compound 0.03 µM) | pIC50 (second compound 0.0949 µM)

CC(=O)OC12COC1CC(O)C1(C)C(=O)C(O)C3=C(C)C(OC(=O)C(O)C(NC(=O)OC(C)(C)C)c4ccccc4)CC(O)(C(OC(=O)c4ccccc4)C21)C3(C)C (centres undefined) + C#Cc1c(F)ccc2cc(O)cc(-c3ncc4c(N5CC6CCC(C5)N6)nc(OCC56CCCN5CC(F)C6)nc4c3F)c12
active: viability, T/C (second compound 0.0316 µM, first compound 0.0316 µM) 2.38% | viability, T/C (second compound 0.0316 µM, first compound 0.1 µM) 3.09% | viability, T/C (second compound 0.0316 µM, first compound 0.316 µM) 3.14% | viability, T/C (second compound 0.0316 µM, first compound 1 µM) 3.55% | viability, T/C (second compound 0.0316 µM, first compound 3.16 µM) 3.94% | viability, T/C (second compound 0.0316 µM, first compound 10 µM) 3.06% | viability, T/C (second compound 0.1 µM, first compound 0.0316 µM) 2.23% | viability, T/C (second compound 0.1 µM, first compound 0.1 µM) 2.57% | viability, T/C (second compound 0.1 µM, first compound 0.316 µM) 2.12% | viability, T/C (second compound 0.1 µM, first compound 1 µM) 1.89% | viability, T/C (second compound 0.1 µM, first compound 3.16 µM) 1.87% | viability, T/C (second compound 0.1 µM, first compound 10 µM) 3.18% | viability, T/C (second compound 0.316 µM, first compound 0.0316 µM) 2.05% | viability, T/C (second compound 0.316 µM, first compound 0.1 µM) 2.18% | viability, T/C (second compound 0.316 µM, first compound 0.316 µM) 2% | viability, T/C (second compound 0.316 µM, first compound 1 µM) 2.01% | viability, T/C (second compound 0.316 µM, first compound 3.16 µM) 2.08% | viability, T/C (second compound 0.316 µM, first compound 10 µM) 1.78% | viability, T/C (second compound 1 µM, first compound 0.0316 µM) 1.73% | viability, T/C (second compound 1 µM, first compound 0.1 µM) 1.59% | viability, T/C (second compound 1 µM, first compound 0.316 µM) 1.53% | viability, T/C (second compound 1 µM, first compound 1 µM) 1.76% | viability, T/C (second compound 1 µM, first compound 3.16 µM) 1.09% | viability, T/C (second compound 1 µM, first compound 10 µM) 1.72% | viability, T/C (second compound 3.16 µM, first compound 0.0316 µM) 1.58% | viability, T/C (second compound 3.16 µM, first compound 0.1 µM) 1.73% | viability, T/C (second compound 3.16 µM, first compound 0.316 µM) 1.51% | viability, T/C (second compound 3.16 µM, first compound 1 µM) 1.74% | viability, T/C (second compound 3.16 µM, first compound 3.16 µM) 1.58% | viability, T/C (second compound 3.16 µM, first compound 10 µM) 1.95% | viability, T/C (second compound 10 µM, first compound 0.0316 µM) 0.77% | viability, T/C (second compound 10 µM, first compound 0.1 µM) 0.5% | viability, T/C (second compound 10 µM, first compound 0.316 µM) 0.68% | viability, T/C (second compound 10 µM, first compound 1 µM) 0.75% | viability, T/C (second compound 10 µM, first compound 3.16 µM) 0.42% | viability, T/C (second compound 10 µM, first compound 10 µM) 0.94%
> 7.50: pIC50 (second compound 0.0316 µM) | pIC50 (second compound 0.1 µM) | pIC50 (second compound 0.316 µM) | pIC50 (second compound 1 µM) | pIC50 (second compound 3.16 µM) | pIC50 (second compound 10 µM)

— PubChem BioAssay AID2060903 (Molecular Pharmacology Branch, DTP, NCI, 2025)
